Experiments:
[1] = tested on: Human monocyte cell line THP-1; assay: Detection of THP-1 cell pyroptosis (Caspase-Glo 1 Inflammasome Assay); format: cell-based; conditions: 20 nM PMA 48 h, 1 μg/mL LPS, compound 3 h
Summary of the method: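 Differentiated with 20 nM PMA for 48 h (50,000 cells/well), then given serum-free medium with 1 μg/mL LPS and compound in a 10-point, 3-fold series from 10 μM for 3 h at 37 °C. Caspase-1 activity read with Caspase-Glo 1 Inflammasome kit; IC50 calculated.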

[2] = tested on: IL-1β release in human PBMCs; assay: Assay of IL-1β release in human PBMCs; format: cell-based; conditions: 10 ng/mL LPS 3 h, compound 0.5 h, 5 mM ATP 1 h, ELISA
Description: 5 mL of human venous whole blood from a healthy donor was placed in a Li-heparin tube. PBMCs were isolated and incubated in a culture medium containing 10 ng/mL LPS at 37° C./5% CO2 for 3 h. Cells were plated in a 96-well plate at 50 μL per well. 25 μL of compound or solvent control was added to each well and 3-fold diluted in gradient from a maximum concentration of 10 μM, and 8 gradient concentrations were set. The mixtures were incubated for 0.5 h. 25 μL of ATP at a final concentration of 5 mM was added to each well, and the resulting mixtures were incubated for 1 h. After the incubation, the mixtures were centrifuged at 1500 rpm for 20 min, and the supernatant was collected to detect the expression level of […] by ELISA (BD, Human IL-1β ELISA Set II, Cat #557953). IC50 was calculated using GraphPad Prism7.0 software. The results are shown in Table 2, which indicate that: the compounds disclosed herein down-regulate release of mature IL-1β by inhibiting the activity of Caspase-1, and the IC50 is <50 nM.

[3] = Pharmacokinetic analysis of compounds in rats; format: in vivo, SD rats; conditions: for F %: po 10 mg/kg vs iv 1 mg/kg
Description: Healthy adult SD rats weighing 180-220 g were fasted (free access to water) overnight and divided into tail vein administration group and intragastric administration group. The tail vein administration group was subjected to blood collection of 0.1 mL from orbital venous plexus before the administration and 5 min, 15 min, 0.5 h, 1 h, 2 h, 4 h, 8 h, 12 h and 24 h after the administration, and plasma was separated out by centrifugation at 4° C. for 5 min and stored at −20° C. for test. The intragastric administration group was subjected to blood collection of 0.1 mL from orbital venous plexus before the administration and 5 min, 15 min, 0.5 h, 1 h, 2 h, 4 h, 8 h, 12 h and 24 h after the administration, and the subsequent treatment procedures were the same as those of the tail vein injection group. The concentration of parent drug in the plasma was determined by LC-MS/MS.

[4] = tested on: Rat dorsal air pouch models; assay: Rat dorsal air pouch pharmacodynamic models (sodium urate); format: in vivo, SD rats; conditions: air pouch exudate 5 h after 1% sodium urate; for IL-1β concentration in exudate: ELISA
Description: Healthy adult male SD rats weighing 180-220 g were purchased, and rat dorsal air pouch models were constructed after adaptive feeding of the rats. On day 1, day 4 and day 7 of modeling, 20 mL of sterile air was injected subcutaneously into the back of rats by means of injection needles, and the air pouch was maintained at an inflated state. On day 8, 50 mg/kg compound or vehicle control was administered intragastrically. 5 mL of 1% sodium urate suspension was injected into the dorsal air pouch, and air pouch exudate was collected 5 h later. 40 μL of the exudate was taken for leukocyte counting. The remaining exudate was centrifuged at 1500 rpm for 20 min, and the supernatant was collected to detect the expression level of IL-1β by ELISA (BD, Human IL-1β ELISA Set II, Cat #557953).

[5] = Homo sapiens, THP-1, THP-1 pyroptosis
[6] = SD rats, iv (tail vein), 1 mg/kg, plasma
[7] = SD rats, po (intragastric), 10 mg/kg, plasma

C[C@@H](c1cc(F)c2c(c1NC(=O)N[S@@](=N)(=O)c1cc(C(C)(C)O)co1)CCC2)C1CC1 (mixture of isomers) [Compound 42-1, (R)- and (S)-N-((5-((R)-1-cyclopropylethyl)-7-fluoro-2,3-dihydro-1H-inden-4-yl)carbamoyl)-4-(2-hydroxypropan-2-yl)furan-2-sulfonimidamide]
IC50 [1, 5]: 100 to 500 nM | IC50 ([2]; PBMC): 18.5 nM

Cc1oc(S(=O)(=O)NC(=O)Nc2c([C@@H](C)C3CC3)ccc3c2CCC3)cc1C(C)(C)O [Compound 23, (S)-N-((5-(1-cyclopropylethyl)-2,3-dihydro-1H-inden-4-yl)carbamoyl)-4-(2-hydroxypropan-2-yl)-5-methylfuran-2-sulfonamide]
IC50 [1, 5]: 100 to 500 nM | IC50 ([2]; PBMC): 5 nM

C[C@H](c1ccc2c(c1NC(=O)NS(=O)(=O)c1cc(C(C)(C)O)co1)CCC2)C1CC1 [Compound 7, (S)-N-((5-(1-cyclopropylethyl)-2,3-dihydro-1H-inden-4-yl)carbamoyl)-4-(2-hydroxypropan-2-yl)furan-2-sulfonamide]
IC50 [1, 5]: ≤ 100 nM | IC50 ([2]; PBMC): 41.1 nM

Cc1oc(S(=N)(=O)NC(=O)Nc2c(CC3CCC3)ccc3c2CCC3)cc1C(C)(C)O (stereo not shown) [Compound 21-1, RS- and SS-N-((5-(cyclobutylmethyl)-2,3-dihydro-1H-inden-4-yl)carbamoyl)-4-(2-hydroxypropan-2-yl)-5-methylfuran-2-sulfonimidamide]
IC50 ([1]; THP-1 pyroptosis): ≤ 100 nM | AUC ([3]; rat, in vivo, iv, 1 mg/kg): 2404 ng·h/mL | Cl ([3]; rat, in vivo, iv, 1 mg/kg): 7.4 mL/min/kg | Vss ([3]; rat, in vivo, iv, 1 mg/kg): 0.371 L/kg | t1/2 ([3]; rat, in vivo, iv, 1 mg/kg): 0.65 h | AUC ([3]; rat, in vivo, po, 10 mg/kg): 37246 ng·h/mL | Cmax ([3]; rat, in vivo, po, 10 mg/kg): 12717 ng/mL | t1/2 ([3]; rat, in vivo, po, 10 mg/kg): 2.3 h | IC50 [2]: 26.2 nM

C[C@@H](c1cc(F)c2c(c1NC(=O)N[S@@](=N)(=O)c1cc(C(C)(C)O)co1)CCC2)C1CC1 (single isomer, unassigned) [Compound 42-2]
IC50 [1, 5]: ≤ 100 nM | AUC ([3]; SD, rat, in vivo, iv, 1 mg/kg): 1980 ng·h/mL | Vd ([3]; SD, rat, in vivo, iv, 1 mg/kg): 0.503 L/kg | clearance ([3]; SD, rat, in vivo, iv, 1 mg/kg): 8.6 mL/min/kg | half-life ([3]; SD, rat, in vivo, iv, 1 mg/kg): 0.79 h | bioavailability ([3]; SD, rat, in vivo, po): 87.2% | AUC ([3]; SD, rat, in vivo, po, 10 mg/kg): 17300 ng·h/mL | Cmax ([3]; SD, rat, in vivo, po, 10 mg/kg): 8500 ng/mL | half-life ([3]; SD, rat, in vivo, po, 10 mg/kg): 2.1 h | IC50 ([2]; PBMC): 3.2 nM

C[C@H](c1cc(F)c2c(c1NC(=O)NS(=O)(=O)c1cc(C(C)(C)O)co1)CCC2)C1CC1 [Compound 43, (S)-N-((5-(1-cyclopropylethyl)-7-fluoro-2,3-dihydro-1H-inden-4-yl)carbamoyl)-4-(2-hydroxypropan-2-yl)furan-2-sulfonamide]
IC50 [1, 5]: 500 to 1000 nM | IC50 ([2]; PBMC): 11.6 nM

[2H]c1cc([C@@H](C)C2CC2)c(NC(=O)NS(=N)(=O)c2cc(C(C)(C)O)co2)c2c1CCC2 (single isomer, unassigned) [Compound 32-2, (RS, SC)- and (SS, SC)-N-((5-(1-cyclopropylethyl)-2,3-dihydro-1H-inden-4-yl-7-d)carbamoyl)-4-(2-hydroxypropan-2-yl)furan-2-sulfonimidamide]
IC50 ([1]; THP-1 pyroptosis): ≤ 100 nM | IC50 ([2]; PBMC): 28.9 nM

[2H]c1cc([C@H](C)C2CC2)c(NC(=O)NS(=O)(=O)c2cc(C(C)(C)O)co2)c2c1CCC2 [Compound 29, (R)-N-((5-(1-cyclopropylethyl)-2,3-dihydro-1H-inden-4-yl-7-d)carbamoyl)-4-(2-hydroxypropan-2-yl)furan-2-sulfonamide]
IC50 [1, 5]: 100 to 500 nM | IC50 ([2]; PBMC): 18.5 nM

Cc1oc(S(=N)(=O)NC(=O)Nc2c(C(C)C3CC3)ccc3c2CCC3)cc1C(C)(C)O (single isomer, unassigned) [Compound 24-2, RS- and SS-N-((5-(1-cyclopropylethyl)-2,3-dihydro-1H-inden-4-yl)carbamoyl)-4-(2-hydroxypropan-2-yl)-5-methylfuran-2-sulfonimidamide]
IC50 ([1]; THP-1 pyroptosis): ≤ 100 nM | IC50 [2]: 17.4 nM

(RS, SC)- and (SS, SC)-N-((5-(1-cyclobutylethyl)-2,3-dihydro-1H-inden-4-yl)carbamoyl)-4-(2-hydroxypropan-2-yl)furan-2-sulfonimidamide [Compound 82-1]
IC50 ([1]; THP-1 pyroptosis): 100 to 500 nM | AUC [3, 6]: 2228 ng·h/mL | Cl [3, 6]: 11.2 mL/min/kg | Vss [3, 6]: 0.379 L/kg | t1/2 [3, 6]: 0.70 h | F % ([3]; SD rats): 74.0% | AUC [3, 7]: 16478 ng·h/mL | Cmax [3, 7]: 5883 ng/mL | t1/2 [3, 7]: 2.3 h | IC50 [2]: 5.2 nM

C[C@@H](c1ccc2c(c1NC(=O)NS(=N)(=O)c1cc(C(C)(C)O)co1)CCC2)C1CCC1 (mixture of isomers) [Compound 80-2, (RS)- and (SS)-N-((5-((R)-1-cyclobutylethyl)-2,3-dihydro-1H-inden-4-yl)carbamoyl)-4-(2-hydroxypropan-2-yl)furan-2-sulfonimidamide]
IC50 ([1]; THP-1 pyroptosis): ≤ 100 nM | IC50 [2]: 14.8 nM

C[C@@H](c1ccc2c(c1NC(=O)NS(=O)(=O)c1cnc(C(C)(C)O)s1)CCC2)C1CC1 [Compound 87, (R)-N-((5-(1-cyclopropylethyl)-2,3-dihydro-1H-inden-4-yl)carbamoyl)-2-(2-hydroxypropan-2-yl)thiazole-5-sulfonamide]
IC50 [1, 5]: ≤ 100 nM | IC50 ([2]; PBMC): 40.4 nM

C[C@@H](c1ccc2c(c1NC(=O)NS(=N)(=O)c1cc(C(C)(C)O)co1)CCC2)C1CC1 (mixture of isomers) [Compound 6-1, (RS, RC)- and (SS, RC)-N-((5-(-1-cyclopropylethyl)-2,3-dihydro-1H-inden-4-yl)carbamoyl)-4-(2-hydroxypropan-2-yl)furan-2-sulfonimidamide]
Leukocyte concentration (10^6/mL) ([4]; 50 mg/kg intragastric): 1.99 ± 0.4 10^6/mL | IL-1β concentration in exudate ([4]; 50 mg/kg intragastric): 895.7 ± 266.4 pg/mL | IC50 ([1]; THP-1 pyroptosis): ≤ 100 nM | AUC [3, 6]: 6312 ng·h/mL | Cl [3, 6]: 2.7 mL/min/kg | Vss [3, 6]: 0.26 L/kg | t1/2 [3, 6]: 1.6 h | F % ([3]; SD rats): 65.8% | AUC [3, 7]: 41521 ng·h/mL | Cmax [3, 7]: 13900 ng/mL | t1/2 [3, 7]: 2.5 h

C[C@H](c1cc(F)c2c(c1NC(=O)N[S@@](=N)(=O)c1cc(C(C)(C)O)co1)CCC2)C1CC1 (single isomer, unassigned) [Compound 44-2]
IC50 [1, 5]: ≤ 100 nM | AUC ([3]; SD, rat, in vivo, iv, 1 mg/kg): 1620 ng·h/mL | Vd ([3]; SD, rat, in vivo, iv, 1 mg/kg): 0.537 L/kg | clearance ([3]; SD, rat, in vivo, iv, 1 mg/kg): 10.5 mL/min/kg | half-life ([3]; SD, rat, in vivo, iv, 1 mg/kg): 0.93 h | bioavailability ([3]; SD, rat, in vivo, po): 89.1% | AUC ([3]; SD, rat, in vivo, po, 10 mg/kg): 14500 ng·h/mL | Cmax ([3]; SD, rat, in vivo, po, 10 mg/kg): 6380 ng/mL | half-life ([3]; SD, rat, in vivo, po, 10 mg/kg): 2.4 h | IC50 ([2]; PBMC): 16.3 nM

C[C@@H](c1cc(F)c2c(c1NC(=O)NS(=O)(=O)c1cc(C(C)(C)O)co1)CCC2)C1CC1 [Compound 41, (R)-N-((5-(1-cyclopropylethyl)-7-fluoro-2,3-dihydro-1H-inden-4-yl)carbamoyl)-4-(2-hydroxypropan-2-yl)furan-2-sulfonamide]
IC50 [1, 5]: ≤ 100 nM | IC50 ([2]; PBMC): 5 nM

RS- and SS-N-((5-(cyclobutylmethyl)-2,3-dihydro-1H-inden-4-yl-7-d)carbamoyl)-4-(2-hydroxypropan-2-yl)furan-2-sulfonimidamide [Compound 39-1]
IC50 ([1]; THP-1 pyroptosis): ≤ 100 nM | IC50 [2]: 31.7 nM

(RS, RC)- and (SS, RC)-N-((5-(1-cyclopropylethyl)-2,3-dihydro-1H-inden-4-yl-7-d)carbamoyl)-4-(2-hydroxypropan-2-yl)furan-2-sulfonimidamide [Compound 31-2]
IC50 ([1]; THP-1 pyroptosis): ≤ 100 nM | IC50 [2]: 25 nM

COc1cc2c(c(OC)c1OC)-c1ccc(OC)c(=O)cc1[C@@H](NC(C)=O)CC2 [Colchicine, reference compound]
Leukocyte concentration (10^6/mL) ([4]; 30 mg/kg): 3.40 ± 0.7 10^6/mL | IL-1β concentration in exudate ([4]; 30 mg/kg): 1190.9 ± 463.6 pg/mL

Source: patent US11976054B2, “Amide derivative and preparation method therefore and use thereof in medicine” (Chengdu Baiyu Pharmaceutical Co., Ltd., priority 2019, dated 2024)
